The source of these data is ChEMBL document CHEMBL4715876 (J Med Chem, 2020).

Values after ≈ are worked out from the molar mass of the structure shown.

Data set [1] in a line: Tmax in BALB/C mouse at 10 mg/kg, iv measured upto 24 hrs by LC-MS analysis. The data set is classed as ADME, organism-based. As to conditions: in vivo.
Data set [2] in a line: Cmax in BALB/C mouse at 10 mg/kg, iv measured upto 24 hrs by LC-MS analysis. The class given is ADME, organism-based. More on the design: route intravenous, dose 10 mg/kg, time <= 24. The following applies: in vivo.
Data set [3] in a line: AUClast in BALB/C mouse at 10 mg/kg, iv measured upto 24 hrs by LC-MS analysis. The following applies: in vivo. More on the design: route intravenous, dose 10 mg/kg, time <= 24. The class given is ADME, organism-based.
Data set [4] is described as follows: Tmax in BALB/C mouse at 10 mg/kg, po measured upto 24 hrs by LC-MS analysis. The following applies: in vivo. The class given is ADME, organism-based.
Data set [5] in a line: Cmax in BALB/C mouse at 10 mg/kg,po measured upto 24 hrs by LC-MS analysis. As to conditions: in vivo. The class given is ADME, organism-based. More on the design: route oral, dose 10 mg/kg, time <= 24.
Data set [6] is described as follows: AUClast in BALB/C mouse at 10 mg/kg,po measured upto 24 hrs by LC-MS analysis. The class given is ADME, organism-based. More on the design: route oral, dose 10 mg/kg, time <= 24. The following applies: in vivo.
Data set [7] in a line: Oral bioavailability in BALB/C mouse at 10 mg/kg measured upto 24 hrs by LC-MS analysis. The data set is classed as ADME, organism-based. As to conditions: in vivo.
The nature of data set [8]: Tmax in Sprague-Dawley rat at 2 mg/kg, iv measured upto 24 hrs by LC-MS/MS analysis. The data set is classed as ADME, organism-based. As to conditions: in vivo.
The nature of data set [9]: Cmax in Sprague-Dawley rat at 2 mg/kg, iv measured upto 24 hrs by LC-MS/MS analysis. More on the design: route intravenous, dose 2 mg/kg, time <=24. The data set is classed as ADME, organism-based. The following applies: in vivo.
Data set [10] is described as follows: AUClast in Sprague-Dawley rat at 2 mg/kg, iv measured upto 24 hrs by LC-MS/MS analysis. The following applies: in vivo. More on the design: route intravenous, dose 2 mg/kg, time <=24. The data set is classed as ADME, organism-based.
Data set [11] can be described thus: Volume of distribution at steady state in Sprague-Dawley rat at 2 mg/kg, iv measured upto 24 hrs by LC-MS/MS analysis. The class given is ADME, organism-based. As to conditions: in vivo, read-out: Vdss.
Data set [12] can be described thus: Tmax in Sprague-Dawley rat at 10 mg/kg, po measured upto 24 hrs by LC-MS/MS analysis. As to conditions: in vivo. The class given is ADME, organism-based.
Data set [13] in a line: Cmax in Sprague-Dawley rat at 10 mg/kg, po measured upto 24 hrs by LC-MS/MS analysis. As to conditions: in vivo. More on the design: route oral, dose 10 mg/kg, time <=24. The data set is classed as ADME, organism-based.
The nature of data set [14]: Oral bioavailability in Sprague-Dawley rat at 10 mg/kg measured upto 24 hrs by LC-MS/MS analysis. As to conditions: in vivo. The data set is classed as ADME, organism-based.
A short description of data set [15]: Cmax in Beagle dog at 1 mg/kg, iv measured upto 24 hrs by LC-MS/MS analysis. The data set is classed as ADME, organism-based, Canis lupus familiaris. More on the design: route intravenous, dose 1 mg/kg, time <=24. As to conditions: in vivo.
The nature of data set [16]: AUClast in Beagle dog at 1 mg/kg, iv measured upto 24 hrs by LC-MS/MS analysis. More on the design: route intravenous, dose 1 mg/kg, time <=24. The class given is ADME, organism-based, Canis lupus familiaris. As to conditions: in vivo.
The nature of data set [17]: Volume of distribution at steady state in Beagle dog at 1 mg/kg, iv measured upto 24 hrs by LC-MS/MS analysis. The data set is classed as ADME, organism-based, Canis lupus familiaris. The following applies: in vivo, 1 mg/kg, 24 h.
Data set [18] is described as follows: Tmax in Beagle dog at 5 mg/kg, po measured upto 24 hrs by LC-MS/MS analysis. The data set is classed as ADME, organism-based, Canis lupus familiaris. The following applies: in vivo.
A short description of data set [19]: Cmax in Beagle dog at 5 mg/kg, po measured upto 24 hrs by LC-MS/MS analysis. The data set is classed as ADME, organism-based, Canis lupus familiaris. More on the design: route oral, dose 5 mg/kg, time <=24. As to conditions: in vivo.
Data set [20] can be described thus: AUClast in Beagle dog at 5 mg/kg, po measured upto 24 hrs by LC-MS/MS analysis. The class given is ADME, organism-based, Canis lupus familiaris. More on the design: route oral, dose 5 mg/kg, time <=24. As to conditions: in vivo.
Data set [21] is described as follows: Oral bioavailability in Beagle dog at 5 mg/kg measured upto 24 hrs by LC-MS/MS analysis. The class given is ADME, organism-based, Canis lupus familiaris. The following applies: in vivo.
Data set [22] can be described thus: Lipophilicity, log D of compound at pH 7.4. The data set is classed as physicochemical. The following applies: buffer.
A short description of data set [23]: Solubility of the compound. The data set is classed as physicochemical.
Data set [24] is described as follows: Tmax in BALB/C mouse at 1 mg/kg, iv measured upto 24 hrs by LC-MS analysis. The data set is classed as ADME, organism-based. As to conditions: in vivo.
Data set [25] can be described thus: Cmax in BALB/C mouse at 1 mg/kg, iv measured upto 24 hrs by LC-MS analysis. The data set is classed as ADME, organism-based. More on the design: route intravenous, dose 1 mg/kg, time <= 24. As to conditions: in vivo.
Data set [26] can be described thus: AUClast in BALB/C mouse at 1 mg/kg, iv measured upto 24 hrs by LC-MS analysis. The following applies: in vivo. More on the design: route intravenous, dose 1 mg/kg, time <= 24. The data set is classed as ADME, organism-based.
The nature of data set [27]: Volume of distribution at steady state in BALB/C mouse at 1 mg/kg, iv measured upto 24 hrs by LC-MS analysis. The data set is classed as ADME, organism-based. The following applies: in vivo, read-out: Vdss.

Regarding `C[C@H](Nc1ncnc2[nH]cnc12)c1nc2cccc(Cl)c2c(=O)n1-c1ccccc1`, the Tmax in data set [1] came to 4.98 min; in data set [4], 4.98 min; in [8], 4.98 min; in [12], 1.2 h; in data set [18] it was 1.33 h. The Cmax turned out to be 13.3 µM in [2]; 930 nM in data set [5]; 3.64 µM in data set [9]; 1880 nM in [13]; 1200 nM in data set [15]; 5.68 µM in data set [19]. Moreover, the AUC(0-t) at 24 h in data set [3] is 4.55 µM·h; in data set [6], 0.328 µM·h; in [10], 2.77 µM·h. The bioavailability in data set [7] was found to be 7%; in data set [14] it was 57%. The Vd in [11] came out at 1.66 L/kg. Further, the AUClast stood at 1.88 µM·h in [16] and 26.25 µM·h in data set [20]. This compound returned a Vdss in [17] of 57 L/kg. Besides, the F in data set [21] came out at 40%.
As to `Cc1nc(N)nc(N[C@@H](C)c2c(-c3ccccc3)c(=O)n3cc(F)ccc3c2-c2ccc(F)cc2)c1C#N`, in [22], the logD turned out to be 3.26. The solubility in data set [23] came out at 44.9 µM (≈ 22.9 µg/mL).
As for `C[C@H](Nc1nc(N)nc(N)c1C#N)c1c(-c2ccccc2)c(=O)n2cc(F)ccc2c1-c1ccccc1`, the logD in data set [22] was found to be 2.49. In data set [23], this compound gave a solubility of 50.6 µM (≈ 24.9 µg/mL).
For `C[C@H](Nc1nc(N)nc(N)c1C#N)c1c(-c2ccccc2)c(=O)n2cc(F)ccc2c1C1CC1`, the figures for the Tmax in data set [4] and in data set [24] were 60 min and 4.8 min, respectively. The figures for the peak concentration (Cmax) in data set [5] and in data set [25] were 1300 nM and 1400 nM, respectively. The figures for the AUC(0-t) at 24 h in data set [6] and in data set [26] were 2.4 µM·h and 1.5 µM·h, respectively. The bioavailability in data set [7] is 16%. The Vd in [27] turned out to be 1.8 L/kg.

What is called Tmax is the time at which the peak concentration occurs. For orientation: Cmax means the highest concentration seen after dosing. Broadly, the AUC(0-t) is exposure summed from dosing to a finite time, without extrapolation to infinity. Higher therefore signals high exposure. One may read the bioavailability as the share of a dose that reaches the circulation, judged against a reference dose that is usually intravenous. A higher bioavailability goes with much systemic uptake. Usually Vdss stands for the apparent volume that relates the amount in the body to the concentration in plasma or blood. As a reminder, the logD is the decadic logarithm of the distribution of all forms, ionised or not, between an organic phase and buffer at a given pH. Lower therefore signals a more hydrophilic compound. As a reminder, the solubility is the dissolved amount per volume that the medium holds. Low values mean little dissolved substance, high ones much dissolved substance.
